Measurements as given in PubChem BioAssay AID248 (DTP/NCI, 2004).
Where “and” joins values, the source holds several entries; their conditions need not be identical. Equal values may be shown once. Inconclusive results and toxic doses are left out. Cut-off read from the data, not from the text of the source: active = T/C of 150% or more; inactive = T/C below 125%.

System: L1210 leukemia ip in BDF1 mice, survival T/C
Test: NCI In Vivo Anticancer Drug Screen. Data for tumor model L1210 Leukemia (intraperitoneal) in B6D2F1 (BDF1) mice
Details: endpoint: mean survival time, higher = longer survival
How it was run: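 Tumor cells were implanted, animals were treated, and survival was followed. The result divides the treated measurement by the vehicle-control measurement.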

[1] = dose: 100.0 mg/kg/injection, schedule: Q01DX001 (ip), vehicle: Klucel (hydroxypropylcellulose) (HPC)
[2] = dose: 100.0 mg/kg/injection, schedule: Q04DX002 (ip), vehicle: saline
[3] = dose: 200.0 mg/kg/injection, schedule: Q04DX002 (ip), vehicle: saline
[4] = dose: 400.0 mg/kg/injection, schedule: Q04DX002 (ip), vehicle: saline
[5] = dose: 100.0 mg/kg/injection, schedule: Q04DX003 (ip), vehicle: Klucel (hydroxypropylcellulose) (HPC)
[6] = dose: 200.0 mg/kg/injection, schedule: Q04DX003 (ip), vehicle: Klucel (hydroxypropylcellulose) (HPC)
[7] = dose: 400.0 mg/kg/injection, schedule: Q04DX003 (ip), vehicle: Klucel (hydroxypropylcellulose) (HPC)
[8] = dose: 50.0 mg/kg/injection, schedule: Q01DX009 (ip), vehicle: saline with Tween-80
[9] = dose: 50.0 mg/kg/injection, schedule: Q01DX001 (ip), vehicle: carboxymethylcellulose (CMC)
[10] = dose: 100.0 mg/kg/injection, schedule: Q01DX001 (ip), vehicle: carboxymethylcellulose (CMC)
[11] = dose: 200.0 mg/kg/injection, schedule: Q01DX001 (ip), vehicle: carboxymethylcellulose (CMC)
[12] = dose: 400.0 mg/kg/injection, schedule: Q01DX001 (ip), vehicle: carboxymethylcellulose (CMC)
[13] = dose: 100.0 mg/kg/injection, schedule: Q01DX001 (ip), vehicle: saline
[14] = dose: 200.0 mg/kg/injection, schedule: Q01DX001 (ip), vehicle: saline
[15] = dose: 100.0 mg/kg/injection, schedule: Q01DX009 (ip), vehicle: Klucel (hydroxypropylcellulose) (HPC)
[16] = dose: 200.0 mg/kg/injection, schedule: Q01DX009 (ip), vehicle: Klucel (hydroxypropylcellulose) (HPC)
[17] = dose: 400.0 mg/kg/injection, schedule: Q01DX009 (ip), vehicle: Klucel (hydroxypropylcellulose) (HPC)

Measured: T/C

COC(=O)NC1CCC(NC(=O)OC)CC1 (stereo not drawn)
inactive: [1] 96 % of control | dose: 200.0 mg/kg/injection, schedule: Q01DX001 (ip), vehicle: Klucel (hydroxypropylcellulose) (HPC) 93 % of control | dose: 400.0 mg/kg/injection, schedule: Q01DX001 (ip), vehicle: Klucel (hydroxypropylcellulose) (HPC) 91 % of control

Brc1cnc[nH]1
inactive: dose: 25.0 mg/kg/injection, schedule: Q01DX009 (ip), vehicle: water 97 % of control | dose: 50.0 mg/kg/injection, schedule: Q01DX009 (ip), vehicle: water 90 % of control | dose: 100.0 mg/kg/injection, schedule: Q01DX009 (ip), vehicle: water 102 % of control | [2] 100 % of control | [3] 95 % of control | dose: 400.0 mg/kg/injection, schedule: Q01DX009 (ip), vehicle: water 98 % of control | [4] 92 % of control

COC(=O)c1ccccc1N=Nc1ccc(O)c(C(C)C)c1
inactive: dose: 25.0 mg/kg/injection, schedule: Q01DX009 (ip), vehicle: Klucel (hydroxypropylcellulose) (HPC) 98 % of control | dose: 50.0 mg/kg/injection, schedule: Q01DX009 (ip), vehicle: Klucel (hydroxypropylcellulose) (HPC) 98 % of control | [5] 97 % of control | [6] 100 % of control | [7] 98 % of control

CC(=O)NC(CC(N)=O)C(=O)O (stereo not drawn)
inactive: [2] 96 % of control | [3] 99 % of control | [4] 99 % of control

CNC(=O)Oc1cccc(C)c1
inactive: dose: 25.0 mg/kg/injection, schedule: Q01DX009 (ip), vehicle: saline with Tween-80 97 % of control | [8] 94 % of control

COC1C(O)C(CO)OC1n1cnc2c(=S)nc[nH]c21 (stereo not drawn)
inactive: [9] 102 % of control | dose: 88.8 mg/kg/injection, schedule: Q01DX001 (ip), vehicle: carboxymethylcellulose (CMC) 102 % of control and 112 % of control | [10] 102 % of control | dose: 133.0 mg/kg/injection, schedule: Q01DX001 (ip), vehicle: carboxymethylcellulose (CMC) 110 % of control and 116 % of control | [11] 110 % of control and 116 % of control | dose: 300.0 mg/kg/injection, schedule: Q01DX001 (ip), vehicle: carboxymethylcellulose (CMC) 102 % of control and 116 % of control | [12] 102 % of control

COc1ccc(C2C(=O)c3ccc(OC)c(OC)c3C2=O)cc1OC (stereo not drawn)
inactive: [13] 94 % of control | [14] 89 % of control

CCOC(=S)SCc1ccc([N+](=O)[O-])cc1
inactive: dose: 100.0 mg/kg/injection, schedule: Q04DX002 (ip), vehicle: gum acacia 97 % of control | dose: 200.0 mg/kg/injection, schedule: Q04DX002 (ip), vehicle: gum acacia 100 % of control | dose: 400.0 mg/kg/injection, schedule: Q04DX002 (ip), vehicle: gum acacia 97 % of control

COc1cc(O)c2c(c1)C(=O)c1cc3c(c(O)c1C2=O)C(OC1OC(C)C(O)C(O)C1OC)C(OC)C(C)(O)C3=O (stereo not drawn)
inactive: [13] 92 % of control | [14] 103 % of control | dose: 400.0 mg/kg/injection, schedule: Q01DX001 (ip), vehicle: saline 97 % of control

CC(C)=CCCC/C=N/NC(N)=O
inactive: dose: 75.0 mg/kg/injection, schedule: Q01DX001 (ip), vehicle: acetone 102 % of control | dose: 150.0 mg/kg/injection, schedule: Q01DX001 (ip), vehicle: acetone 97 % of control

Cc1cc(S(=O)(=O)F)ccc1NC(=O)NCc1ccc([N+](=O)[O-])cc1Cl
inactive: [5] 112 % of control | [6] 101 % of control

Nc1ncnc2c1nc(Br)n2C1OC(CO)C(O)C1O (stereo not drawn)
inactive: dose: 100.0 mg/kg/injection, schedule: Q04DX003 (ip), vehicle: saline 97 % of control | dose: 200.0 mg/kg/injection, schedule: Q04DX003 (ip), vehicle: saline 101 % of control | dose: 400.0 mg/kg/injection, schedule: Q04DX003 (ip), vehicle: saline 101 % of control

CC12C=CC(C=C1)C(O)C2 (stereo not drawn)
inactive: [15] 101 % of control | [5] 97 % of control | [16] 114 % of control | [6] 96 % of control | [17] 90 % of control | [7] 94 % of control

CC(C)N(C(=S)SC(=S)N(C(C)C)C(C)C)C(C)C
inactive: dose: 50.0 mg/kg/injection, schedule: Q04DX003 (ip), vehicle: Klucel (hydroxypropylcellulose) (HPC) 93 % of control | [5] 90 % of control | [6] 96 % of control

Cc1[nH]nc(C(=O)O)c1Br
inactive: dose: 25.0 mg/kg/injection, schedule: Q01DX005 (ip), vehicle: saline 100 % of control | dose: 50.0 mg/kg/injection, schedule: Q01DX005 (ip), vehicle: saline 105 % of control | dose: 100.0 mg/kg/injection, schedule: Q01DX005 (ip), vehicle: saline 122 % of control | dose: 200.0 mg/kg/injection, schedule: Q01DX005 (ip), vehicle: saline 102 % of control | dose: 400.0 mg/kg/injection, schedule: Q01DX005 (ip), vehicle: saline 113 % of control

O=S(c1cc(Cl)cc(Cl)c1O)c1cc(Cl)cc(Cl)c1O
inactive: [9] 95 % of control | [10] 98 % of control | [11] 101 % of control | [12] 114 % of control

O=C(Nc1ccccc1)Nc1ccccn1
inactive: dose: 12.5 mg/kg/injection, schedule: Q04DX003 (ip), vehicle: saline with Tween-80 95 % of control | dose: 25.0 mg/kg/injection, schedule: Q04DX003 (ip), vehicle: saline with Tween-80 95 % of control

CCCCCCCCCCCCCCCCOc1ccc(C(SC)=[N+]2CCCCC2)cc1OC
inactive: [5] 98 % of control | [6] 102 % of control | [7] 102 % of control

COc1ccc(Cl)cc1NC(=O)Nc1ccccc1
inactive: [15] 87 % of control | [5] 99 % of control | [16] 94 % of control | [6] 97 % of control | [17] 89 % of control | [7] 92 % of control

O=C(O)c1cc(-c2cccc(C(F)(F)F)c2)nc2c(C(F)(F)F)cccc12
inactive: [8] 96 % of control | dose: 100.0 mg/kg/injection, schedule: Q01DX009 (ip), vehicle: saline with Tween-80 96 % of control | dose: 100.0 mg/kg/injection, schedule: Q04DX003 (ip), vehicle: saline with Tween-80 101 % of control | dose: 200.0 mg/kg/injection, schedule: Q04DX003 (ip), vehicle: saline with Tween-80 105 % of control

O=C(NC(=S)Nc1cccc(Cl)c1)c1ccc(Cl)cc1Cl
inactive: [1] 87 % of control | [15] 87 % of control | dose: 100.0 mg/kg/injection, schedule: Q04DX002 (ip), vehicle: Klucel (hydroxypropylcellulose) (HPC) 115 % of control | [5] 97 % of control | [16] 97 % of control and 87 % of control | dose: 200.0 mg/kg/injection, schedule: Q04DX002 (ip), vehicle: Klucel (hydroxypropylcellulose) (HPC) 93 % of control | [6] 103 % of control | [17] 87 % of control and 92 % of control | dose: 400.0 mg/kg/injection, schedule: Q04DX002 (ip), vehicle: Klucel (hydroxypropylcellulose) (HPC) 94 % of control | [7] 108 % of control

CCOC(=O)C12CCC(C(=O)O)(CC1)CC2
inactive: dose: 75.0 mg/kg/injection, schedule: Q04DX002 (ip), vehicle: Klucel (hydroxypropylcellulose) (HPC) 100 % of control | dose: 150.0 mg/kg/injection, schedule: Q04DX002 (ip), vehicle: Klucel (hydroxypropylcellulose) (HPC) 106 % of control | dose: 300.0 mg/kg/injection, schedule: Q04DX002 (ip), vehicle: Klucel (hydroxypropylcellulose) (HPC) 110 % of control
